Starred links: 1 amine or outer side, 2 acyl side, 3 side chain; linkers in the order of their positions; H or OH if unused. Non-standard residues stand in square brackets, D forms with d. Residues, ends and D or L forms follow the SMILES beside them. *: point of attachment. X10 = NC(=O)CC[C@H](CN[*:1])C(=O)[*:2]; X8 = NC[C@@H](CO)C(=O)*
What was measured:
Type in all cases: cell-based
PTHR2 = PTHR2 (Homo sapiens, UniProt P49190); assay: PTHR2 activation, cAMP production (GloSensor) in HEK293 cells; design: expressed in transfected cells; conditions: for EC50: HEK-293 cells, GloSensor cAMP, read-out: EC50 (nM) of PTHR2 Activation
Text: The assays employ HEK-293 cells that have been engineered to express the appropriate receptor. GloSensor-based detection of cAMP provides a read-out of receptor activation. […] (Carter, P. H. et al. Actions of the Small Molecule Ligands SW106 and AH-3960 on the Type-1 Parathyroid Hormone Receptor. Molecular Endocrinology 29, 307-321 (2015).)
FIGS. 10A and 10B depict dose-response curves of PTHR1 activation (FIG. 10A) and PTHR2 activation (FIG. 10B) in HEK293 cells stably expressing PTHR1 or PTHR2. For PTHR1 activation and all the binding data, data represent mean±s.e.m from three independent measurements; For PTHR2 activation, data represent mean±s.e.m from four independent measurements. Curves were fit to the data using a four-parameter sigmoidal dose-response equation.

PTHR1 = biological target: T1, PTHR1 (Homo sapiens, UniProt Q03431); assay: PTHR1 activation, cAMP production (GloSensor) in HEK293 cells; design: expressed in transfected cells; conditions: for EC50: HEK-293 cells, GloSensor cAMP, read-out: EC50 (nM) of PTHR1 Activation; for PTHR1 Activation: Derivative EC50/PTH EC50: normalized to EC50 of PTH(1-34)-NH2 ([…]), cAMP production
T1 sequence (Q03431 27-593): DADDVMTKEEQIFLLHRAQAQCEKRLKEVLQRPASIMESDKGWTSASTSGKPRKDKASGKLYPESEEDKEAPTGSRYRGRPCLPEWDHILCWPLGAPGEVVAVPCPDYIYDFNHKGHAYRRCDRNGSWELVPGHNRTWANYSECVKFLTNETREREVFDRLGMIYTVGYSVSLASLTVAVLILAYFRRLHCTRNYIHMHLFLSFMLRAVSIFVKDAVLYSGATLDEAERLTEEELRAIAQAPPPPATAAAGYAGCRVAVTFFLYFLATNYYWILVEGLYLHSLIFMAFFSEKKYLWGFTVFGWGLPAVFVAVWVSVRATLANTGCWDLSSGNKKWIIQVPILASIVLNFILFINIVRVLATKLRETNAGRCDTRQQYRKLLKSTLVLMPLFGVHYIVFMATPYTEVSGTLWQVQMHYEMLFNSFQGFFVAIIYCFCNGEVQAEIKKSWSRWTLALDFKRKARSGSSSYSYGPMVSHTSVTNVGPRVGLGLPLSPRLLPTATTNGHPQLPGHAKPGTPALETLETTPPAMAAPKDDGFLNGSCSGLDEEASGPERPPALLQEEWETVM
Text: The assays employ HEK-293 cells that have been engineered to express the appropriate receptor. GloSensor-based detection of cAMP provides a read-out of receptor activation.
For PTHR1 activation and all the binding data, data represent mean±s.e.m from three independent measurements; For PTHR2 activation, data represent mean±s.e.m from four independent measurements. Curves were fit to the data using a four-parameter sigmoidal dose-response equation.
For cAMP dose-response assays, monolayers of confluent HEK 293 cells were pre-incubated with buffer containing d-luciferin (0.5 mM) in 96 well plates at room temperature until a stable baseline level of luminescence was established (30 min). Varying concentrations of agonist were then added, and the time course of luminescence response was recorded using a Perkin Elmer plate reader following α/β-peptide addition.

PTHR1 and PTHR2 = assay: Tolerance pattern of β residues for PTHR1 and PTHR2 activation; design: key: “*” denotes potent PTHR1-selective agonism; “#” denotes potent PTHR2-selective agonism; “*#” denotes potent agonism of both PTHR1 and PTHR2; conditions: PTHR1 vs PTHR2 agonism
Text: Enhanced selectivity via double α→β replacement.

PTHR2, sequence (P49190 25-550): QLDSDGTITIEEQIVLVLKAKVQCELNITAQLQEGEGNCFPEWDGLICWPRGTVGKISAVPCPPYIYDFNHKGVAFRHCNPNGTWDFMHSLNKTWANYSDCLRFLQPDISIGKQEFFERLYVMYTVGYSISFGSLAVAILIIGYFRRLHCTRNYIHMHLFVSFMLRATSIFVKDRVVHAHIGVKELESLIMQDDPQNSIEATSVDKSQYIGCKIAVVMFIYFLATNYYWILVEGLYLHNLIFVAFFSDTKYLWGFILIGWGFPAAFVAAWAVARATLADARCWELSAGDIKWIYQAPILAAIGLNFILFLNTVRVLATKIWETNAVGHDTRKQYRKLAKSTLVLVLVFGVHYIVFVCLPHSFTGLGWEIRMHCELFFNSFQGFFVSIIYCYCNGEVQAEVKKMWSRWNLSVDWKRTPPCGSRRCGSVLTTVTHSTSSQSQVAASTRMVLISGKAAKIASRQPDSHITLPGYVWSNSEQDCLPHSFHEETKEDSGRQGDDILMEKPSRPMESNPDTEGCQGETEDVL

EC50 (PTHR1) | PTHR1 Activation: Derivative EC50/PTH EC50 (PTHR1) | SMILES | EC50 (PTHR2) | PTHR2 Activation: Derivative EC50/PTH EC50 (PTHR2; normalized to EC50 of PTH(1-34)-NH2 ([…] printed), cAMP production) | Tolerance Pattern of β AA (PTHR1 and PTHR2)
7.83 ± 0.4 nM | 20.61 | CC[C@H](C)[C@H](NC(=O)[C@H](CCC(=O)O)NC(=O)[C@H](CO)NC(=O)[C@@H](NC(=O)[C@@H](N)CO)C(C)C)C(=O)NC[C@@H](CCC(N)=O)C(=O)N[C@@H](CC(C)C)C(=O)N[C@@H](CCSC)C(=O)N[C@@H](Cc1c[nH]cn1)C(=O)N[C@@H](CC(N)=O)C(=O)N[C@@H](CC(C)C)C(=O)NCC(=O)N[C@@H](CCCCN)C(=O)N[C@@H](Cc1c[nH]cn1)C(=O)N[C@@H](CC(C)C)C(=O)N[C@@H](CC(N)=O)C(=O)N[C@@H](CO)C(=O)N[C@@H](CCSC)C(=O)N[C@@H](CCC(=O)O)C(=O)N[C@@H](CCCNC(=N)N)C(=O)N[C@H](C(=O)N[C@@H](CCC(=O)O)C(=O)N[C@@H](Cc1c[nH]c2ccccc12)C(=O)N[C@@H](CC(C)C)C(=O)N[C@@H](CCCNC(=N)N)C(=O)N[C@@H](CCCCN)C(=O)N[C@@H](CCCCN)C(=O)N[C@@H](CC(C)C)C(=O)N[C@@H](CCC(N)=O)C(=O)N[C@@H](CC(=O)O)C(=O)N[C@H](C(=O)N[C@@H](Cc1c[nH]cn1)C(=O)N[C@@H](CC(N)=O)C(=O)N[C@@H](Cc1ccccc1)C(N)=O)C(C)C)C(C)C [SEQ. ID. NO: 27] (H-SVSEI[X10]LMHNLGKHLNSMERVEWLRKKLQDVHNF-NH2; N-terminus assumed) | 51.9 ± 8.82 nM | 59.70 | 
8.45 ± 1.35 nM | 22.24 | CC[C@H](C)[C@H](NC(=O)[C@H](CCC(=O)O)NC(=O)[C@H](CO)NC(=O)[C@@H](NC(=O)[C@@H](N)CO)C(C)C)C(=O)N[C@@H](CCC(N)=O)CC(=O)N[C@@H](CC(C)C)C(=O)N[C@@H](CCSC)C(=O)N[C@@H](Cc1c[nH]cn1)C(=O)N[C@@H](CC(N)=O)C(=O)N[C@@H](CC(C)C)C(=O)NCC(=O)N[C@@H](CCCCN)C(=O)N[C@@H](Cc1c[nH]cn1)C(=O)N[C@@H](CC(C)C)C(=O)N[C@@H](CC(N)=O)C(=O)N[C@@H](CO)C(=O)N[C@@H](CCSC)C(=O)N[C@@H](CCC(=O)O)C(=O)N[C@@H](CCCNC(=N)N)C(=O)N[C@H](C(=O)N[C@@H](CCC(=O)O)C(=O)N[C@@H](Cc1c[nH]c2ccccc12)C(=O)N[C@@H](CC(C)C)C(=O)N[C@@H](CCCNC(=N)N)C(=O)N[C@@H](CCCCN)C(=O)N[C@@H](CCCCN)C(=O)N[C@@H](CC(C)C)C(=O)N[C@@H](CCC(N)=O)C(=O)N[C@@H](CC(=O)O)C(=O)N[C@H](C(=O)N[C@@H](Cc1c[nH]cn1)C(=O)N[C@@H](CC(N)=O)C(=O)N[C@@H](Cc1ccccc1)C(N)=O)C(C)C)C(C)C [SEQ. ID. NO: 43] |  |  | #
21 ± 2.3 nM |  | CC[C@H](C)[C@H](NC(=O)[C@H](CCC(=O)O)NC(=O)[C@H](CO)NC(=O)[C@@H](NC(=O)[C@@H](N)CO)C(C)C)C(=O)N[C@@H](CCC(N)=O)C(=O)N[C@@H](CC(C)C)C(=O)N[C@@H](CCSC)CC(=O)N[C@@H](Cc1cnc[nH]1)C(=O)N[C@@H](CC(N)=O)C(=O)N[C@@H](CC(C)C)C(=O)NCC(=O)N[C@@H](CCCCN)C(=O)N[C@@H](Cc1cnc[nH]1)C(=O)N[C@@H](CC(C)C)C(=O)N[C@@H](CC(N)=O)C(=O)N[C@@H](CO)C(=O)N[C@@H](CCSC)C(=O)N[C@@H](CCC(=O)O)C(=O)N[C@@H](CCCNC(=N)N)C(=O)N[C@H](C(=O)N[C@@H](CCC(=O)O)C(=O)N[C@@H](Cc1c[nH]c2ccccc12)C(=O)N[C@@H](CC(C)C)C(=O)N[C@@H](CCCNC(=N)N)C(=O)N[C@@H](CCCCN)C(=O)N[C@@H](CCCCN)C(=O)N[C@@H](CC(C)C)C(=O)N[C@@H](CCC(N)=O)C(=O)N[C@@H](CC(=O)O)C(=O)N[C@H](C(=O)N[C@@H](Cc1cnc[nH]1)C(=O)N[C@@H](CC(N)=O)C(=O)N[C@@H](Cc1ccccc1)C(N)=O)C(C)C)C(C)C [SEQ. ID. NO: 45] | > 100 nM |  | 
 |  | CC[C@H](C)[C@H](NC(=O)[C@H](CCC(=O)O)NC(=O)[C@H](CO)NC(=O)C[C@@H](NC(=O)[C@@H](N)CO)C(C)C)C(=O)N[C@@H](CCC(N)=O)C(=O)N[C@@H](CC(C)C)C(=O)N[C@@H](CCSC)C(=O)N[C@@H](Cc1c[nH]cn1)C(=O)N[C@@H](CC(N)=O)C(=O)N[C@@H](CC(C)C)C(=O)NCC(=O)N[C@@H](CCCCN)C(=O)N[C@@H](Cc1c[nH]cn1)C(=O)N[C@@H](CC(C)C)C(=O)N[C@@H](CC(N)=O)C(=O)N[C@@H](CO)C(=O)N[C@@H](CCSC)C(=O)N[C@@H](CCC(=O)O)C(=O)N[C@@H](CCCNC(=N)N)C(=O)N[C@H](C(=O)N[C@@H](CCC(=O)O)C(=O)N[C@@H](Cc1c[nH]c2ccccc12)C(=O)N[C@@H](CC(C)C)C(=O)N[C@@H](CCCNC(=N)N)C(=O)N[C@@H](CCCCN)C(=O)N[C@@H](CCCCN)C(=O)N[C@@H](CC(C)C)C(=O)N[C@@H](CCC(N)=O)C(=O)N[C@@H](CC(=O)O)C(=O)N[C@H](C(=O)N[C@@H](Cc1c[nH]cn1)C(=O)N[C@@H](CC(N)=O)C(=O)N[C@@H](Cc1ccccc1)C(N)=O)C(C)C)C(C)C [SEQ. ID. NO: 39] |  |  | *#
0.35 ± 0.06 nM |  | CC[C@H](C)[C@H](NC(=O)[C@H](CCC(=O)O)NC(=O)[C@H](CO)NC(=O)[C@@H](NC(=O)[C@@H](CN)CO)C(C)C)C(=O)N[C@@H](CCC(N)=O)C(=O)N[C@@H](CC(C)C)C(=O)N[C@@H](CCSC)C(=O)N[C@@H](Cc1c[nH]cn1)C(=O)N[C@@H](CC(N)=O)C(=O)N[C@@H](CC(C)C)C(=O)NCC(=O)N[C@@H](CCCCN)C(=O)N[C@@H](Cc1c[nH]cn1)C(=O)N[C@@H](CC(C)C)C(=O)N[C@@H](CC(N)=O)C(=O)N[C@@H](CO)C(=O)N[C@@H](CCSC)C(=O)N[C@@H](CCC(=O)O)C(=O)N[C@@H](CCCNC(=N)N)C(=O)N[C@H](C(=O)N[C@@H](CCC(=O)O)C(=O)N[C@@H](Cc1c[nH]c2ccccc12)C(=O)N[C@@H](CC(C)C)C(=O)N[C@@H](CCCNC(=N)N)C(=O)N[C@@H](CCCCN)C(=O)N[C@@H](CCCCN)C(=O)N[C@@H](CC(C)C)C(=O)N[C@@H](CCC(N)=O)C(=O)N[C@@H](CC(=O)O)C(=O)N[C@H](C(=O)N[C@@H](Cc1c[nH]cn1)C(=O)N[C@@H](CC(N)=O)C(=O)N[C@@H](Cc1ccccc1)C(N)=O)C(C)C)C(C)C [SEQ. ID. NO: 22] (X8-VSEIQLMHNLGKHLNSMERVEWLRKKLQDVHNF-NH2) | 5.97 ± 1.21 nM |  | 
 |  | CC[C@H](C)[C@H](NC(=O)[C@H](CCC(=O)O)NC(=O)C[C@H](CO)NC(=O)[C@@H](NC(=O)[C@@H](N)CO)C(C)C)C(=O)N[C@@H](CCC(N)=O)C(=O)N[C@@H](CC(C)C)C(=O)N[C@@H](CCSC)C(=O)N[C@@H](Cc1c[nH]cn1)C(=O)N[C@@H](CC(N)=O)C(=O)N[C@@H](CC(C)C)C(=O)NCC(=O)N[C@@H](CCCCN)C(=O)N[C@@H](Cc1c[nH]cn1)C(=O)N[C@@H](CC(C)C)C(=O)N[C@@H](CC(N)=O)C(=O)N[C@@H](CO)C(=O)N[C@@H](CCSC)C(=O)N[C@@H](CCC(=O)O)C(=O)N[C@@H](CCCNC(=N)N)C(=O)N[C@H](C(=O)N[C@@H](CCC(=O)O)C(=O)N[C@@H](Cc1c[nH]c2ccccc12)C(=O)N[C@@H](CC(C)C)C(=O)N[C@@H](CCCNC(=N)N)C(=O)N[C@@H](CCCCN)C(=O)N[C@@H](CCCCN)C(=O)N[C@@H](CC(C)C)C(=O)N[C@@H](CCC(N)=O)C(=O)N[C@@H](CC(=O)O)C(=O)N[C@H](C(=O)N[C@@H](Cc1c[nH]cn1)C(=O)N[C@@H](CC(N)=O)C(=O)N[C@@H](Cc1ccccc1)C(N)=O)C(C)C)C(C)C [SEQ. ID. NO: 40] |  |  | #
